Assays:
human MATE1 = molecular target: T1, human MATE1 (Homo sapiens, UniProt Q96FL8); test: cell-based
T1 sequence (Q96FL8 1-570): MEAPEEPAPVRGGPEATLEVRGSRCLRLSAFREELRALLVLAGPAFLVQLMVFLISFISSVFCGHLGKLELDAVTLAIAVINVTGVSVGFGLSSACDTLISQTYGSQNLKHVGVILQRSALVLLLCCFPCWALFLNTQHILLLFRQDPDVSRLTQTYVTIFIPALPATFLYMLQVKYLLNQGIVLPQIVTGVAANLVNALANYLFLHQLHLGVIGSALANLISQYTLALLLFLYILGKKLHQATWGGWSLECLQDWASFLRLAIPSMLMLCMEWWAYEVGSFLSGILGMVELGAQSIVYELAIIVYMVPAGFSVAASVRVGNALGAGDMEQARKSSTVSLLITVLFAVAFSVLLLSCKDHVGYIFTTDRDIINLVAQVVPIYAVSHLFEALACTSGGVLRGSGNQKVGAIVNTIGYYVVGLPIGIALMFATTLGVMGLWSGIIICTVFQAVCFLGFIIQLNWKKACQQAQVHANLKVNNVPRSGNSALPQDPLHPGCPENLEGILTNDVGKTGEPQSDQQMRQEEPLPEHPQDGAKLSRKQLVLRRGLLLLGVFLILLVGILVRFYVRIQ

MATE1 (SLC47A1) = molecular target: T2, MATE1 (SLC47A1) (Homo sapiens, UniProt Q96FL8); test: in vitro; conditions: HEK293 cells overexpressing human MATE1
T2 sequence (Q96FL8 1-570): T1 sequence (Q96FL8 1-570)

[1] = humans; cited from earlier work
[2] = test system: cardiomyocytes isolated from wild-type or MATE1-deficient mice; test: Ex vivo cardiomyocyte uptake of [3H] dofetilide; assay type: cell-based, mouse; conditions: [3H] dofetilide 2 µM; cardiomyocytes from MATE1-/- vs wild-type mice
Description: Briefly, hearts from wild-type and MATE1-deficient mice were quickly removed and perfused on a Langendorff’s apparatus at 37 °C. After a 5 min perfusion with Ca^2+-free tyrode solution containing (in mM): 140 NaCl, 5.4 KCl 0.5 MgCl2, 10 Hepes and 5.6 glucose; pH 7.3, the perfusate was then switched to tyrode solution containing Liberase Blendzymes (Roche, Applied Science, IN) for digestion of the connective tissue. After 20 min of digestion, cardiomyocytes were isolated from dissected and triturated hearts and stabilized in BSA containing tyrode solution.
Isolated cardiomyocytes were then plated in 12 well plates containing Ca^2+ and Mg^2+ free Hank’s balanced salt solution.

human (h) MATE1 = molecular target: T3, human (h) MATE1 (Homo sapiens, UniProt Q96FL8); test: Uptake of [14C] TEA and [14C] metformin in HEK293 cells overexpressing human MATE1 after preincubation with dofetilide; assay type: cell-based; conditions: dofetilide 1-50 µM, preincubation 15 min; TEA 2 µM, metformin 5 µM
T3 construct: host or cells: HEK293 (Flp-In system, pcDNA5/FRT vector)
T3 sequence (Q96FL8 1-570): T1 sequence (Q96FL8 1-570)
Description: In brief, cells were seeded in 12- or 24-well plates in phenol red-free DMEM containing 10% FBS, and were incubated at 37 °C for 24 h. […] Uptake studies were performed with [^14C] […]
overexpressing mouse (m) OCT2, OCTN1, or MATE1. Relative uptake is expressed as percentage change compared with empty vector controls (n = 3). (B) Uptake of [14C] TEA (2 µM) and [14C] metformin (5 µM) in HEK293 cells […]
followed by the co-incubation with TEA and metformin for 15 min. Data represent the mean ± SEM and are expressed as a percentage over vector control. (C) Gene expression of MATE1 in the kidney isolated from untreated male and female wild-type mice (n = 4 per group). (D) Protein expression of MATE1 in the heart isolated from untreated wild-type (WT) and MATE1-/- mice (n=3). Immunohistochemical detection of MATE1 (bottom panels) in the wild-type mouse heart (E) and kidney (F). Tissue staining lacking the primary antibody was performed as a negative control for each tissue group (top panels). Representative images were taken at x40 magnification. (G) […]
(also on this page, place not known: hMATE1 (% Control) mOCT2mOCTN1mMA TE 1 No PrimaryMATE1 Relative Uptake in of) […]

Row | IC50 (human MATE1) [nM] | Km at 2 min (MATE1 (SLC47A1)) [µM] | inhibition of MATE1-dependent transport of TEA and metformin (human (h) MATE1) | Compound | higher dofetilide plasma concentrations in females than males [1] | accumulation of dofetilide in cardiomyocytes [2]
1 | 130 | – | – | COc1cc2c(Nc3ccc(Br)cc3F)ncnc2cc1OCC1CCN(C)CC1 [Vandetanib, vandetanib] | – | –
2 | – | 6.72 ± 1.71 | dose-dependently inhibit | CN(CCOc1ccc(NS(C)(=O)=O)cc1)CCc1ccc(NS(C)(=O)=O)cc1 [dofetilide] | 14–22% | significantly increased in the absence of MATE1
3 | 170 | – | – | CC(=O)N1CCN(c2ccc(OCC3COC(Cn4ccnc4)(c4ccc(Cl)cc4Cl)O3)cc2)CC1 (stereo not shown) [Ketoconazole, ketoconazole] | – | –
4 | 320 | – | – | CCC(C)n1ncn(-c2ccc(N3CCN(c4ccc(OCC5COC(Cn6cncn6)(c6ccc(Cl)cc6Cl)O5)cc4)CC3)cc2)c1=O (stereo not shown) [Itraconazole, itraconazole] | – | –

From paper PMC9369325, “MATE1 Deficiency Exacerbates Dofetilide-Induced Proarrhythmia” (International Journal of Molecular Sciences, 2022)
